Results from patent US8664249B2, “Tetrasubstituted benzenes” (EnVivo Pharmaceuticals, Inc., priority 2007, dated 2014).

What was measured:
γ-secretase = γ-secretase (Homo sapiens, UniProt P49768); assay: Aβ42 lowering in HEK-293 cells overexpressing APP (ELISA of conditioned medium); type: cell-based
Procedure: Transfected cells overexpressing β-APP or its equivalent producing the Aβ peptide can be used to monitor the effects of synthetic compounds on the production of Aβ.
To analyze a compound's effects on the concentrations of the various products of the γ-secretase cleavage activity, the Aβ peptides, various methods known to a person skilled in the art are available.
Cells were grown to approximately 70-80% confluency subsequent to the addition of test compounds. The growth media was aspirated or removed, the cells washed, and replaced with 100 μl of compound, appropriately diluted in serum free media. The plates are then incubated for 16-18 hours at 37° C.
Conditioned Medium samples are removed for analysis/quantitation of the various Aβ peptide levels by differential ELISA's as described in accompanying instructions to the kits.

Aβ = assay: In vivo Aβ lowering in C57BL/6 mice (FIG. 1); design: species or system mouse; settings: one dose at 30 mg/kg in Solutol HS 15:Ethanol:Water (15:10:75), Aβ measured at 3 hours
From the text: Practitioners will also know that similar methods can also be applied to other species such as mice (including transgenic strains such as Tg2576), guinea pig, dog and monkey.

SMILES | melting point [°C] | further results
CC(C)CC(C(=O)O)c1cc(OCC2CC2)c(-c2ccc(C(F)(F)F)cc2)cc1F (centres unmarked) [Example 724, 2-(2-cyclopropylmethoxy-5-fluoro-4′-trifluoromethyl-biphenyl-4-yl)-4-methyl-pentanoic acid] | 110 to 111 | 
O=C(O)C1(c2cc(Cl)c(-c3ccc(C(F)(F)F)cc3)c(OCC(F)(F)F)c2)CCCC1 [Example 1837, 1-(2-chloro-6-(2,2,2-trifluoroethoxy)-4′-(trifluoromethyl)biphenyl-4-yl)cyclopentanecarboxylic acid] |  | EC50 (γ-secretase): < 1000 nM
CC(C)CC(C(=O)O)c1cc(OCC2CC2)c(-c2ccc3nonc3c2)cc1F (centres unmarked) [Example 754, 2-(4-(benzo[c][1,2,5]oxadiazol-5-yl)-5-(cyclopropylmethoxy)-2-fluorophenyl)-4-methylpentanoic acid] | 110 to 111 | 
CC(C)c1ccc(-c2cc(C(CC3CC3)C(=O)O)cc(Cl)c2OCC(F)(F)F)cc1 (centres unmarked) [Example 1301, 2-(5-chloro-4′-isopropyl-6-(2,2,2-trifluoroethoxy)biphenyl-3-yl)-3-cyclopropylpropanoic acid] |  | effect on Aβ after administration (Aβ): desirable effect on Aβ

Continued, in another order:

melting point [°C] | SMILES | further results
115 to 116 | CC(C)CC(C(=O)O)c1cc(Cl)c(-c2ccc(C(F)(F)F)cc2)c(OCC2CC2)c1 (centres unmarked) [Example 1904, 2-(2-Chloro-6-cyclopropylmethoxy-4′-trifluoromethyl-biphenyl-4-yl)-4-methyl-pentanoic acid] | 
52 to 53 | CC(C)CC(C(=O)O)c1cc(Cl)c(-c2ccc(Cl)cc2)c(OCC2CC2)c1 (centres unmarked) [Example 3200, 2-(2,4′-Dichloro-6-cyclopropylmethoxy-biphenyl-4-yl)-4-methyl-pentanoic acid] | 
118 to 119 | CC(C)CC(C(=O)O)c1cc(Cl)c(-c2ccc(Cl)c(Cl)c2)c(OCC2CC2)c1 (centres unmarked) [Example 3201, 4-Methyl-2-(2,3′,4′-trichloro-6-cyclopropylmethoxy-biphenyl-4-yl)-pentanoic acid] | 
148 to 149 | CC(C)CC(C(=O)O)c1cc(-c2ccc(C(F)(F)F)cc2)c(OCC2CC2)c(C(F)(F)F)c1 (centres unmarked) [Example 1055, 2-(6-Cyclopropylmethoxy-5,4′-bis-trifluoromethyl-biphenyl-3-yl)-4-methyl-pentanoic Acid] | 
